# Read-outs that look alike come from different tables or passages of the source.
# Columns and labels:
# S. Aureus ATCC 6538 = experiment: Effect of serum on bacteriostatic activity (serial tube dilution test); format: cell-based, Staphyloccocus aureus; settings: for Fold Increase in MIC S. Aureus ATCC 6538: 40% vs 0% horse serum; for MIC: Staphylococcus aureus, ATCC6538
# C. albicans 10231 = experiment: In vitro antifungal activity, MIC (modified Autotiter method); format: cell-based, Candida albicans; settings: Candida albicans, 10231, 20 h, 18-20 hours at 37° C.; read-out: MIC C. albicans 10231
# Outline: (§1)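 Test compound was made up as a 1,000 mcg./ml. solution and serially diluted twofold in sterile water by an automated Autotiter sequence. Inoculated double-strength semisynthetic glucose medium was then added to each cup, giving final drug levels from 500 to 0.06 mcg./ml.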
# C. albicans Wisc. = experiment: as above; format: cell-based, Candida albicans; settings: 18-20 hours at 37° C.; for MIC: Candida albicans, 20 h, read-out: MIC C. albicans Wisc.
# Outline: as §1
# E. coli Vogel = experiment: In vitro antibacterial activity, MIC (modified Autotiter method); format: cell-based, Escherichia coli; settings: 18-20 hours at 37° C.; for MIC: Escherichia coli, 20 h, read-out: MIC E. coli Vogel
# Outline: as §1
# A. niger 16404 = experiment: In vitro antifungal activity, MIC (modified Autotiter method); format: cell-based, Aspergillus niger; settings: 18-20 hours at 37° C.; for MIC: Aspergillus niger, 16404, 20 h, read-out: MIC A. niger 16404
# Outline: as §1
# E. Coli ATCC 8739 = experiment: Effect of serum on bacteriostatic activity (serial tube dilution test); format: cell-based, Escherichia coli; settings: for Fold Increase in MIC E. Coli ATCC 8739: 40% vs 0% horse serum; for MIC: Escherichia coli, ATCC8739
# Outline: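 Bacteriostatic potency against Escherichia coli ATCC 8739 was measured with the standard serial tube dilution test. Minimum inhibitory concentrations were determined in pairs, with the test medium either lacking serum or containing 40% horse serum heat-inactivated at 56° C. for 30 min. Serum impact was reported as the fold increase in MIC (mcg./ml.).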
# S. Aureus Smith = experiment: In vitro antibacterial activity, MIC (modified Autotiter method); format: cell-based, Staphylococcus aureus; settings: Staphylococcus aureus, 20 h, 18-20 hours at 37° C.; read-out: MIC S. Aureus Smith
# Outline: as §1
# [1] = 40% heat inactivated horse serum, read-out: MIC S. Aureus ATCC 6538 40% Serum
# [2] = read-out: MIC S. Aureus ATCC 6538 0% Serum
# [3] = 40% heat inactivated horse serum, read-out: MIC E. Coli ATCC 8739 40% Serum
# [4] = read-out: MIC E. Coli ATCC 8739 0% Serum
Compound,Fold Increase in MIC S. Aureus ATCC 6538 (S. Aureus ATCC 6538),MIC (S. Aureus ATCC 6538; [1]),MIC (S. Aureus ATCC 6538; [2]),MIC (C. albicans 10231),MIC (C. albicans Wisc.),MIC E. coli Vogel (E. coli Vogel),MIC A. niger 16404 (A. niger 16404),Fold Increase in MIC E. Coli ATCC 8739 (E. Coli ATCC 8739),MIC (E. Coli ATCC 8739; [3]),MIC (E. Coli ATCC 8739; [4]),MIC (S. Aureus Smith),MIC C. albicans Wisc. (C. albicans Wisc.; listed as SC),MIC (E. coli Vogel),MIC (A. niger 16404)
"CCCCCCCNc1cc[n+](CCCCCCCCCCCC[n+]2ccc(NCCCCCCC)cc2)cc1 [Example 3, 1,12-bis-[4-(heptylamino)-1-pyridinium]dodecane dibromide]",8 fold,3.12 µg/mL,0.39 µg/mL,1.56 µg/mL,3.13 µg/mL,1.56 µg/mL,3.13 µg/mL,32 fold,25 µg/mL,0.78 µg/mL,0.39 µg/mL,–,–,–
"CCCCCCNc1cc[n+](CCCCCCCCCCCCCC[n+]2ccc(NCCCCCC)cc2)cc1 [Example 5C, 1,14-bis-[4-(hexylamino)-1-pyridinium]tetradecane dibromide]",32 fold,3.12 µg/mL,0.1 µg/mL,1.5 µg/mL,–,–,–,32 fold,25 µg/mL,0.78 µg/mL,0.38 µg/mL,0.76 µg/mL,0.76 µg/mL,3 µg/mL
"CCCCCCCCNc1cc[n+](CCCCCCCC[n+]2ccc(NCCCCCCCC)cc2)cc1 [Example 11, 1,8-bis-[4-(octylamino)-1-pyridinium]octane dibromide]",16 fold,7.8 µg/mL,0.5 µg/mL,1 µg/mL,1 µg/mL,–,–,64 fold,31.2 µg/mL,0.5 µg/mL,0.25 µg/mL,–,1 µg/mL,3.9 µg/mL
"CCCCCCCNc1cc[n+](CCCCCCCCC[n+]2ccc(NCCCCCCC)cc2)cc1 [Example 24, 1,9-bis-[4-(heptylamino)-1-pyridinium]nonane dibromide]",16 fold,1.95 µg/mL,0.125 µg/mL,1 µg/mL,1 µg/mL,–,–,32 fold,7.8 µg/mL,0.25 µg/mL,0.25 µg/mL,–,1 µg/mL,3.9 µg/mL
"CCCCC(CC)CNc1cc[n+](CCCCCCCCCC[n+]2ccc(NCC(CC)CCCC)cc2)cc1 (stereo not shown) [Example 58, 1,10-bis-[4-(2-ethylhexylamino)-1-pyridinium]decane dibromide]",16 fold,3.9 µg/mL,0.25 µg/mL,3 µg/mL,1.5 µg/mL,–,6.0 µg/mL,32 fold,15.6 µg/mL,0.5 µg/mL,0.24 µg/mL,–,1.5 µg/mL,–
